Data published in the supplement of paper PMC13386468.

Assays:
Assay in all cases: IC50 for competition of protein binding to Kinobeads
Settings in all cases: assay detail: Kinobeads competition in P. falciparum blood-stage lysate
UniProt Q8IM16 = target: UniProt Q8IM16
UniProt Q8IDT0 = target: UniProt Q8IDT0
UniProt Q8I259 = target: UniProt Q8I259
UniProt Q8IBN1 = target: UniProt Q8IBN1
Q8ICR0 = Q8ICR0 (UniProt O15865)
UniProt Q8IL94 = target: UniProt Q8IL94
UniProt O77323 = target: UniProt O77323
Chain of UniProt O77323 (O77323 whole entry): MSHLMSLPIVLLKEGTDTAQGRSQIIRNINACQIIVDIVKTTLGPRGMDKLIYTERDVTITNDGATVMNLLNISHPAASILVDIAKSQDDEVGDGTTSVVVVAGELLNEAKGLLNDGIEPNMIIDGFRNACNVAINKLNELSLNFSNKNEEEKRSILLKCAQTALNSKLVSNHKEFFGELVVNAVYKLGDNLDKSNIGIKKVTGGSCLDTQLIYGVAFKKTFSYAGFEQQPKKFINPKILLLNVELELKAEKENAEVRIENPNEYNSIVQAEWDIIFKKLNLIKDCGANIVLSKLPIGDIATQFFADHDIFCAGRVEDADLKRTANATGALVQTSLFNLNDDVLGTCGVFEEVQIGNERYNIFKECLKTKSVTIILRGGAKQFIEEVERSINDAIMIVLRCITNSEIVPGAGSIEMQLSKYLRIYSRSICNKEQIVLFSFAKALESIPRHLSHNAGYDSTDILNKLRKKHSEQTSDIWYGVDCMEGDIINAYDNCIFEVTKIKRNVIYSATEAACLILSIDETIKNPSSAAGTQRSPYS

UniProt C0H5J9 = target: UniProt C0H5J9
UniProt Q8IJ99 = target: UniProt Q8IJ99
UniProt C6KTB4 = target: UniProt C6KTB4
UniProt Q8I5Y9 = target: UniProt Q8I5Y9
UniProt Q8I305 = target: UniProt Q8I305
UniProt Q9U0N4 = target: UniProt Q9U0N4
UniProt Q6ZMA7 = target: UniProt Q6ZMA7
Chain of UniProt Q6ZMA7 (Q6ZMA7 whole entry): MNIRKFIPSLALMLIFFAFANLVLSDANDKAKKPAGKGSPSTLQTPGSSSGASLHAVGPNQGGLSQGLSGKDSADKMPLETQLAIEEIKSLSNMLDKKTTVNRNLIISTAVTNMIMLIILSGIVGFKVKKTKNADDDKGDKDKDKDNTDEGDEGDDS

UniProt Q8IAW5 = target: UniProt Q8IAW5
UniProt Q8I272 = target: UniProt Q8I272
UniProt Q8II79 = target: UniProt Q8II79
UniProt Q8I2X3 = target: UniProt Q8I2X3
Chain of UniProt Q8I2X3 (Q8I2X3 whole entry): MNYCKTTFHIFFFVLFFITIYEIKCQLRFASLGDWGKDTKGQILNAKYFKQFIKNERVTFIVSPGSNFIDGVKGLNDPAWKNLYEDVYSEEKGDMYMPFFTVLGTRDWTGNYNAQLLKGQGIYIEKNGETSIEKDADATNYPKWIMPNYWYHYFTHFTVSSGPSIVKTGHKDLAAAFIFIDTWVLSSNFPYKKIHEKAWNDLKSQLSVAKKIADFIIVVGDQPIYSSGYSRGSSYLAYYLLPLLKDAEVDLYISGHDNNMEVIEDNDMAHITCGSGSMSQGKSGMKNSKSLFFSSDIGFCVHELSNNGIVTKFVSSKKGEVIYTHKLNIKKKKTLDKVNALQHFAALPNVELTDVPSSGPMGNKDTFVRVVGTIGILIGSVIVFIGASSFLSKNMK

UniProt Q8IDB8 = target: UniProt Q8IDB8
UniProt Q8ID43 = target: UniProt Q8ID43
UniProt Q8IM66 = target: UniProt Q8IM66
UniProt Q8I328 = target: UniProt Q8I328
UniProt O97285 = target: UniProt O97285
UniProt Q8IJC7 = target: UniProt Q8IJC7
UniProt C6KT13 = target: UniProt C6KT13
UniProt O77306 = target: UniProt O77306
UniProt Q7KQM0 = target: UniProt Q7KQM0
Chain of UniProt Q7KQM0 (Q7KQM0 whole entry): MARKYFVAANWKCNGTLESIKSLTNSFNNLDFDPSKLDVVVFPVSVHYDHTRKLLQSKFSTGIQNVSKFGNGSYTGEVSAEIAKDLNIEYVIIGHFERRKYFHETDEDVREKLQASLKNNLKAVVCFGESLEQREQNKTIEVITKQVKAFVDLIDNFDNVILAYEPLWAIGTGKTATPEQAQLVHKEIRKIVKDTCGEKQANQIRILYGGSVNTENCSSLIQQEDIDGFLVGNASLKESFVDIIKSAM

UniProt Q8IIJ8 = target: UniProt Q8IIJ8
UniProt Q8IDB0 = target: UniProt Q8IDB0
UniProt Q8IJS7 = target: UniProt Q8IJS7
UniProt Q8IE82 = target: UniProt Q8IE82
UniProt Q8I492 = target: UniProt Q8I492
UniProt O96278 = target: UniProt O96278
UniProt Q8IHZ9 = target: UniProt Q8IHZ9
Chain of UniProt Q8IHZ9 (Q8IHZ9 whole entry): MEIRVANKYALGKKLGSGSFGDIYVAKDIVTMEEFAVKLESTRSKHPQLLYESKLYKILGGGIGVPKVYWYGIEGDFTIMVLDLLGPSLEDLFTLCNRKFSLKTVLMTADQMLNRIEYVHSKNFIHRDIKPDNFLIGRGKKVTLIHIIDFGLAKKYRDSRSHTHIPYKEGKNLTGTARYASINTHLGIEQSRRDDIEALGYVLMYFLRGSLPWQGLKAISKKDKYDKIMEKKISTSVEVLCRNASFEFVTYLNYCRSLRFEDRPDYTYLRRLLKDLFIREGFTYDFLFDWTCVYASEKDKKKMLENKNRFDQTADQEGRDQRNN

UniProt O96259 = target: UniProt O96259
UniProt O15770 = target: UniProt O15770
Chain of UniProt O15770 (O15770 whole entry): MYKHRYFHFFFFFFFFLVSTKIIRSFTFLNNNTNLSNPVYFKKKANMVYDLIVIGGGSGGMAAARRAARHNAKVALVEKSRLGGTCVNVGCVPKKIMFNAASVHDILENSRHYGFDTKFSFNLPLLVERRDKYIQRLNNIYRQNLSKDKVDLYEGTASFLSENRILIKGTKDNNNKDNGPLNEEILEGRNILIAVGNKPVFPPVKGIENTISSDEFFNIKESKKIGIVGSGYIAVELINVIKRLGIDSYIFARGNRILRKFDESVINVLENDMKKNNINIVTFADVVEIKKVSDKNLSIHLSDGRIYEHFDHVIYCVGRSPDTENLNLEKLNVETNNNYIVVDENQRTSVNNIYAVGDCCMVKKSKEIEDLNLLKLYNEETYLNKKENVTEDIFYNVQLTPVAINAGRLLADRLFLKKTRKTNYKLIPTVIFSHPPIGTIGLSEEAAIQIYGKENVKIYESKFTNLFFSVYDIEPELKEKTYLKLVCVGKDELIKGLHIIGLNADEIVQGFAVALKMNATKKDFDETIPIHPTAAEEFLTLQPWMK

UniProt Q8IIK2 = target: UniProt Q8IIK2
UniProt O96271 = target: UniProt O96271
UniProt Q8II42 = target: UniProt Q8II42
UniProt Q8IIJ4 = target: UniProt Q8IIJ4
UniProt Q8IKQ7 = target: UniProt Q8IKQ7
UniProt Q8IDN9 = target: UniProt Q8IDN9
UniProt Q8I546 = target: UniProt Q8I546
UniProt Q8IKZ8 = target: UniProt Q8IKZ8
UniProt Q8I2H3 = target: UniProt Q8I2H3
UniProt Q8IIR9 = target: UniProt Q8IIR9
UniProt Q8II00 = target: UniProt Q8II00
UniProt Q8IL19 = target: UniProt Q8IL19
UniProt Q8IK91 = target: UniProt Q8IK91
UniProt Q8IIU5 = target: UniProt Q8IIU5
UniProt Q8II61 = target: UniProt Q8II61

Measured: IC50
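Note: native unpurified kinases from lysate captured on beads bearing immobilized kinase inhibitors, with bead-bound kinases quantified by mass spectrometry across compound doses.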

Chain of Q8ICR0 (O15865 whole entry, one chain of several): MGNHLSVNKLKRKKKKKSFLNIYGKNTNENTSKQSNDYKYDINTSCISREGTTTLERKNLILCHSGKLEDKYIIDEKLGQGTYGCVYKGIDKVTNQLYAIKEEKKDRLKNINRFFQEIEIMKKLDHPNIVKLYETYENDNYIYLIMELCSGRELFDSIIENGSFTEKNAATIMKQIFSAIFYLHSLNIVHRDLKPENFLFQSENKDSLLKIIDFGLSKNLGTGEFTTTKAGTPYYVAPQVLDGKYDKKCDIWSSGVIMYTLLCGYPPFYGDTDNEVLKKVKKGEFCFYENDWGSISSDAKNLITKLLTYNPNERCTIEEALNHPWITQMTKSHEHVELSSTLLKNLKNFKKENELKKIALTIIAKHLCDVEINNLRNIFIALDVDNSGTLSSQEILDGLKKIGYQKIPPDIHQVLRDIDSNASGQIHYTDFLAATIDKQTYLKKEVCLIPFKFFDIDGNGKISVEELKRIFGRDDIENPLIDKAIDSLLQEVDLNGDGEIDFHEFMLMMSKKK
Chain of UniProt Q8IM16 (Q8IM16 whole entry): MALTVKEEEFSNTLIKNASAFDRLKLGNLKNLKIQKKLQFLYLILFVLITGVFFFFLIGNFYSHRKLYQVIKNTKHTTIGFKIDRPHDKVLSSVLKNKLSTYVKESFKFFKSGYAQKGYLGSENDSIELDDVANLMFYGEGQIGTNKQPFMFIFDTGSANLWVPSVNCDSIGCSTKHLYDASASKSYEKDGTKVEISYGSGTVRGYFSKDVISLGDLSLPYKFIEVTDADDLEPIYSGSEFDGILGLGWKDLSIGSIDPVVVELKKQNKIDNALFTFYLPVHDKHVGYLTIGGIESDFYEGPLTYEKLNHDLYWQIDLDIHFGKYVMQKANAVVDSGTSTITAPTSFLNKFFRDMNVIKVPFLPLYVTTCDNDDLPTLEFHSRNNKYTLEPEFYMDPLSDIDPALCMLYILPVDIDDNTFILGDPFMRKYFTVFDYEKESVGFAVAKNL

O=c1[nH]c2ccc(Cl)cc2c(NC2CN3CCC2CC3)c1-c1nc2ccccc2[nH]1 (stereo unspecified) [CHIR-124]
> 20 µM: all assays above
